Assay results: US20130018033A1, “RAF INHIBITOR COMPOUNDS AND METHODS OF USE THEREOF” (ARRAY BIOPHARMA INC., priority 2009, published 2013)
Where two headings read alike, the source gives them in different places.

Experiments:
[1] = system: basal ERK1/2 phosphorylation in Malme-3M cells; test: Cellular ERK 1/2 phosphorylation assay (Example A1); assay type: cell-based; conditions: Homo sapiens, 1 hour incubation, pERK normalized to total ERK, read-out: P-ERK Malme3-M IC50
Procedure: Inhibition of basal ERK1/2 phosphorylation was determined by the following in vitro […], which comprises incubating cells with a compound of Formula I for 1 hour and quantifying the fluorescent pERK signal on fixed cells and normalizing to total ERK signal.
Malme-3M cells were obtained from ATCC and grown in RPMI-1640 supplemented with 10% fetal bovine serum. Cells were plated in 96-well plates at 24,000 cells/well and allowed to attach for 16-20 hours at 37° C., 5% CO2. The media was removed, and DMSO-diluted compounds were added in RPMI-1640 at a final concentration of 1% DMSO. The cells were incubated with the compounds for 1 hour at 37° C., 5% CO2. The cells were washed with PBS and fixed in 3.7% formaldehyde in PBS for 15 minutes. This was followed by washing in PBS/0.05% Tween20 and permeabilizing in −20° C. 100% MeOH for 15 minutes. Cells were washed in PBS/0.05% Tween20 then blocked in Odyssey blocking buffer (LI-COR Biosciences) for 1 hour. Antibodies to phosphorylated ERK (1:400, Cell Signaling #9106, monoclonal) and total ERK (1:400, Santa Cruz Biotechnology #sc-94, polyclonal) were added to the cells and incubated 16-20 hours at 4° C. After washing with PBS/0.05% Tween20, the cells were incubated with fluorescently-labeled secondary antibodies (1:1000 goat anti-rabbit IgG-IRDye800, Rockland and 1:500 goat anti-mouse IgG-Alexa Fluor 680, Molecular Probes) for an additional hour. Cells were then washed and analyzed for fluorescence at both wavelengths using the Odyssey Infrared Imaging System (LI-COR Biosciences). Phosphorylated ERK signal was normalized to total ERK signal.

V600E full-length B-Raf = target: T1, V600E full-length B-Raf (Homo sapiens, UniProt P15056, V600E); test: B-Raf IC50 assay (Example A); assay type: biochemical
T1 construct: 1 μM FSBA-MEK and 20 nM V600E full-length B-Raf; made in house; host or cells: Sf9 insect cells (baculovirus)
Description: Determining the activity of Raf in the sample is possible by a number of direct and indirect detection methods (US 2004/0082014). Activity of human recombinant B-Raf protein may be assessed in vitro by assay of the incorporation of radio labeled phosphate to recombinant MAP kinase (MEK), a known physiologic substrate of B-Raf, according to US 2004/0127496 and WO 03/022840. The activity/inhibition of V600E full-length B-Raf was estimated by measuring the incorporation of radio labeled phosphate from [γ-^33P]ATP into FSBA-modified wild-type MEK (see Example A).
Activity of human recombinant B-Raf protein may be assessed in vitro by assay of the incorporation of radio labeled phosphate to recombinant MAP kinase (MEK), a known physiologic substrate of B-Raf, according to US 2004/0127496 and WO 03/022840. Catalytically active human recombinant B-Raf protein is obtained by purification from sf9 insect cells infected with a human B-Raf recombinant baculovirus expression vector.
The activity/inhibition of V600E full-length B-Raf was estimated by measuring the incorporation of radio labeled phosphate from [γ-^33P]ATP into FSBA-modified wild-type MEK. The 30-μL assay mixtures contained 25 mM Na Pipes, pH 7.2, 100 mM KCl, 10 mM MgCl2, 5 mM β-glycerophosphate, […], 4 μM ATP, 500 nCi [γ-^33P]ATP, 1 μM FSBA-MEK and 20 nM V600E full-length B-Raf. Incubations were carried out at 22° C. in a Costar 3365 plate (Corning). Prior to the assay, the B-Raf and FSBA-MEK were preincubated together in assay buffer at 1.5×(20 μL of 30 nM and 1.5 μM, respectively) for 15 minutes, and the assay was initiated by the addition of 10 μL of 10 μM ATP. Following the 60-minute incubation, the assay mixtures were quenched by the addition of 100 μL of 25% TCA, the plate was mixed on a rotary shaker for 1 minute, and the product was captured on a Perkin-Elmer GF/B filter plate using a Tomtec Mach III Harvester. After sealing the bottom of the plate, 35 μL of Bio-Safe II (Research Products International) scintillation cocktail were added to each well and the plate was top-sealed and counted in a Topcount NXT (Packard).

[2] = B-Raf V600E assay of Example A, read-out: IC50
[3] = [γ-33P]ATP incorporation into FSBA-MEK, 4 μM ATP, read-out: BRAF V600E IC50

T1 sequence (P15056 whole entry V600E): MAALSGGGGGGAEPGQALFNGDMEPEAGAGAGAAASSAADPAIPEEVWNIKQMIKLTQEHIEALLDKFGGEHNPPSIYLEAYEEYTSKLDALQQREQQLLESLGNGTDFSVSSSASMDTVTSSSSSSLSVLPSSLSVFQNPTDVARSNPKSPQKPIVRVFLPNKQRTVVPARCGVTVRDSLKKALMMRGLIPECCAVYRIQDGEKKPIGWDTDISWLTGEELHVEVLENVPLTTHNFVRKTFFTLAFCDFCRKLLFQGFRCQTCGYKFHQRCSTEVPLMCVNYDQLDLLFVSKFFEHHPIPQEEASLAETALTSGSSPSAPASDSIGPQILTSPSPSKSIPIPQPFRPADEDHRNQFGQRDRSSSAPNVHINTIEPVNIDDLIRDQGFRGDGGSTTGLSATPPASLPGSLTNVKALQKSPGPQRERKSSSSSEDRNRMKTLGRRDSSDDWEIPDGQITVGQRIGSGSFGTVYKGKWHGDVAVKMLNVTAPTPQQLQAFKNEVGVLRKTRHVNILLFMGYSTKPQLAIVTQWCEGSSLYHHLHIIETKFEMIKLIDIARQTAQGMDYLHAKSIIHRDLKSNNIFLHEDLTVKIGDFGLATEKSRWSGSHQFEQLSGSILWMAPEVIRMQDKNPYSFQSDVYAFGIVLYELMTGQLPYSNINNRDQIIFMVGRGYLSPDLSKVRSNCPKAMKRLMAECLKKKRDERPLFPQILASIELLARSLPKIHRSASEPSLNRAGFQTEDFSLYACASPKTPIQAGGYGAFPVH

| IC50 (V600E full-length B-Raf; [2]) [nM] | IC50 (V600E full-length B-Raf; [3]) [nM] | Structure (SMILES) | IC50 [1] [nM] | IC50 (V600E full-length B-Raf; BRAF V600E IC50 (μM), [γ-33P]ATP incorporation into FSBA-MEK, 4 μM ATP) [nM] |
| --- | --- | --- | --- | --- |
| < 100 | 1.25 | CCCS(=O)(=O)Nc1ccc(F)c(NC(=O)c2cncc3c(N)ncnc23)c1F [Example 2, 4-Amino-pyrido[4,3-d]pyrimidine-8-carboxylic acid [2,6-difluoro-3-(propane-1-sulfonylamino)-phenyl]-amide] | 9.6 |  |
| < 1000 | 191 | CCCS(=O)(=O)Nc1ccc(F)c(NC(=O)c2cccc3c(N)ncnc23)c1OC [Example 4, 4-Amino-quinazoline-8-carboxylic acid [6-fluoro-2-methoxy-3-(propane-1-sulfonylamino)-phenyl]-amide] | 433 |  |
| < 100 | 4.77 | CCCS(=O)(=O)Nc1cccc(NC(=O)c2cccc3c(N)ncnc23)c1Cl [Example 5, 4-Amino-quinazoline-8-carboxylic acid [2-chloro-3-(propane-1-sulfonylamino)-phenyl]-amide] | 40.7 |  |
| < 100 | 50.4 | CCCS(=O)(=O)Nc1ccc(F)c(NC(=O)c2cccc3c(N)ncnc23)c1 [Example 6, 4-Amino-quinazoline-8-carboxylic acid [2-fluoro-5-(propane-1-sulfonylamino)-phenyl]-amide] | 1720 |  |
| < 100 | 0.07 | CCCS(=O)(=O)Nc1ccc(Cl)c(NC(=O)c2cccc3c(N)ncnc23)c1Cl [Example 7, 4-Amino-quinazoline-8-carboxylic acid [2,6-dichloro-3-(propane-1-sulfonylamino)-phenyl]-amide] | 7.2 |  |
| < 100 | 10.8 | CCCS(=O)(=O)Nc1cccc(NC(=O)c2cccc3c(N)ncnc23)c1F [Example 8, 4-Amino-quinazoline-8-carboxylic acid [2-fluoro-3-(propane-1-sulfonylamino)-phenyl]-amide] | 32.6 |  |
| < 100 | 0.39 | CCCS(=O)(=O)Nc1cc(F)c(F)c(NC(=O)c2cccc3c(N)ncnc23)c1F [Example 9, 4-Amino-quinazoline-8-carboxylic acid [2,3,6-trifluoro-5-(propane-1-sulfonylamino)-phenyl]-amide] | 12 |  |
|  | > 1000 | CCCS(=O)(=O)Nc1cc(F)c(F)c(NC(=O)c2cccc3c(NC4CCCCC4)ncnc23)c1F [Example 41, 4-Cyclohexylamino-quinazoline-8-carboxylic acid [2,3,6-trifluoro-5-(propane-1-sulfonylamino)-phenyl]-amide] |  |  |
|  | > 1000 | CCCS(=O)(=O)Nc1cc(F)c(F)c(NC(=O)c2cccc3c(NC4CCOCC4)ncnc23)c1F [Example 42, 4-(Tetrahydropyran-4-ylamino)-quinazoline-8-carboxylic acid [2,3,6-trifluoro-5-(propane-1-sulfonylamino)-phenyl]-amide] |  |  |
|  | > 1000 | CCCS(=O)(=O)Nc1cc(F)c(F)c(NC(=O)c2cccc3c(NC4CCNCC4)ncnc23)c1F [Example 44, 4-(Piperidin-4-ylamino)-quinazoline-8-carboxylic acid [2,3,6-trifluoro-5-(propane-1-sulfonylamino)-phenyl]-amide] |  |  |
| < 1000 | 545 | CCCS(=O)(=O)Nc1cc(F)c(F)c(NC(=O)c2cccc3c(NC4CC4)ncnc23)c1F [Example 45, 4-Cyclopropylamino-quinazoline-8-carboxylic acid [2,3,6-trifluoro-5-(propane-1-sulfonylamino)-phenyl]-amide] |  |  |
|  | > 1000 | CCCS(=O)(=O)Nc1cc(F)c(F)c(NC(=O)c2cccc3c(NC4CCC(F)(F)CC4)ncnc23)c1F [Example 46, 4-(4,4-Difluoro-cyclohexylamino)-quinazoline-8-carboxylic acid [2,3,6-trifluoro-5-(propane-1-sulfonylamino)-phenyl]-amide] |  |  |
|  | > 1000 | CCCS(=O)(=O)Nc1cc(F)c(F)c(NC(=O)c2cccc3c(Nc4ccn(C)n4)ncnc23)c1F [Example 48, 4-(1-Methyl-1H-pyrazol-3-ylamino)-N-(2,3,6-trifluoro-5-(propylsulfonamido)phenyl)quinazoline-8-carboxamide] |  |  |
| < 1000 | 737 | CCCS(=O)(=O)Nc1cc(F)c(F)c(NC(=O)c2cccc3c(NCC)ncnc23)c1F [Example 49, 4-Ethylamino-quinazoline-8-carboxylic acid [2,3,6-trifluoro-5-(propane-1-sulfonylamino)-phenyl]-amide] |  |  |
|  | > 1000 | CCCS(=O)(=O)Nc1cc(F)c(F)c(NC(=O)c2cccc3c(NC)ncnc23)c1F [Example 50, 4-Methylamino-quinazoline-8-carboxylic acid [2,3,6-trifluoro-5-(propane-1-sulfonylamino)-phenyl]-amide] |  |  |
| < 1000 | 976 | O=C(Nc1c(F)ccc(NS(=O)(=O)CC2CC2)c1F)c1cccc2c(NC3CC3)ncnc12 [Example 53, 4-Cyclopropylamino-quinazoline-8-carboxylic acid (3-cyclopropylmethanesulfonylamino-2,6-difluoro-phenyl)-amide] |  |  |
|  | > 1000 | CCCS(=O)(=O)Nc1ccc(F)c(NC(=O)c2cc(C)cc3c(NC4CCCC4)ncnc23)c1F [Example 71, 4-Cyclopentylamino-6-methyl-quinazoline-8-carboxylic acid [2,6-difluoro-3-(propane-1-sulfonylamino)-phenyl]-amide] |  |  |
| < 1000 | 879 | CCCS(=O)(=O)Nc1ccc(F)c(NC(=O)c2cc(C)cc3c(NC4CC4)ncnc23)c1F [Example 73, 4-Cyclopropylamino-6-methyl-quinazoline-8-carboxylic acid [2,6-difluoro-3-(propane-1-sulfonylamino)-phenyl]-amide] |  |  |
|  | > 1000 | CCCS(=O)(=O)Nc1ccc(F)c(NC(=O)c2cc(C)cc3c(NC4CCOCC4)ncnc23)c1F [Example 74, 6-Methyl-4-(tetrahydro-pyran-4-ylamino)-quinazoline-8-carboxylic acid [2,6-difluoro-3-(propane-1-sulfonylamino)-phenyl]-amide] |  |  |
|  | > 1000 | CCCS(=O)(=O)Nc1ccc(F)c(NC(=O)c2cc(C)cc3c(NC4CCC4)ncnc23)c1F [Example 75, 4-Cyclobutylamino-6-methyl-quinazoline-8-carboxylic acid [2,6-difluoro-3-(propane-1-sulfonylamino)-phenyl]-amide] |  |  |
|  | > 1000 | CCCS(=O)(=O)Nc1ccc(F)c(NC(=O)c2cc(C)cc3c(NC4CCC(F)(F)CC4)ncnc23)c1F [Example 76, 4-(4,4-Difluoro-cyclohexylamino)-6-methyl-quinazoline-8-carboxylic acid [2,6-difluoro-3-(propane-1-sulfonylamino)-phenyl]-amide] |  |  |

| Structure (SMILES) | IC50 (V600E full-length B-Raf; [2]) [nM] | IC50 (V600E full-length B-Raf; [3]) [nM] | IC50 [1] [nM] | IC50 (V600E full-length B-Raf; BRAF V600E IC50 (μM), [γ-33P]ATP incorporation into FSBA-MEK, 4 μM ATP) [nM] |
| --- | --- | --- | --- | --- |
| CCCS(=O)(=O)Nc1ccc(F)c(NC(=O)c2cccc3c(N)ncnc23)c1F [Example 1, 4-Amino-quinazoline-8-carboxylic acid [2,6-difluoro-3-(propane-1-sulfonylamino)-phenyl]-amide] | < 100 |  | 8.67 | 1.77 |
